Molecular target: T1, FPR1 (UniProt P21462)
T1 sequence (P21462 1-350): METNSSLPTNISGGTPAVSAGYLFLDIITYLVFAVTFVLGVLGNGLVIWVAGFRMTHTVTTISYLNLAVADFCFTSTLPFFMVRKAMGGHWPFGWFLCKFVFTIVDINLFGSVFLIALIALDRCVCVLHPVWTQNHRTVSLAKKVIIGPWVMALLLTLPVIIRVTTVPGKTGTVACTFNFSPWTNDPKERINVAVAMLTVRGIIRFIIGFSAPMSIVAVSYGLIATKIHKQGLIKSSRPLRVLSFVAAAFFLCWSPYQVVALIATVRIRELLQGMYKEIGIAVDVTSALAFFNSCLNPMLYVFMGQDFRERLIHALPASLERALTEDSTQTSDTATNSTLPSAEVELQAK
Assay: fMLP-FPR1 mediated calcium signaling assay in FPR1-overexpressing 293T cells
Format: cell-based, human or mouse
Conditions: inhibition of fMLP-FPR1 mediated intracellular calcium change; hFPR1 or mFPR1 overexpressing 293T cells; 10 min preincubation; INDO-1 AM, FACS
Description: The effects of the compounds of this disclosure on regulating the FPR1-mediated cell signaling were measured by monitoring the cellular calcium level change, as illustrated by the exemplary examples in Table 2. The dose response of the illustrated examples are reported categorically using the following ranking criteria: *** (IC50≤100 nM); ** (IC50≥100 to ≤1000 nM); * (IC50≥1000 to ≤10,000 nM); N.D.—not detected.
The coding DNA sequence (CDS) of human FPR1 (NM_001193306) and mouse FPR1 (NM_013521) were cloned and inserted to the lentivirus vector GV367 (Vector information:http://www.genechem.com.cn/index/supports/tool_search.html?keywords=GV367) under the conduction of pCMV promoter. 293T cells were cultured in H-DMEM supplemented with 10% FBS and 1% penicillin-streptomycin (PS) at 37° C. in 5% CO2 Incubator. 293T cells were transfected with lentivirus vector GV367 containing the CDS of human or mouse FPR1 for 24 h and then cultured with complete medium for another 48 h. At 72 h after transfected, cells were passaged, and 5 μg/ml puromycin was added to screen FPR1-transfected 293T cells. The overexpression of human or mouse FPR1 in 293 T cells were detected by immunostaining with anti-mouse or human FPR1 antibodies (Biolegend or Antibody Online).
Cultured hFPR1 or mFPR1 overexpressing 293T cells were labeled with 1 μM INDO-1 AM calcium sensor dye (eBioscience) for 30 min at 37° C. After washed with 1×PBS, cells were resuspended with H-DMEM containing 3% FBS, and were maintained on ice prior to the measurement of intracellular calcium concentration. To measure the inhibitory potency of designed potential FPR1 antagonists, hFPR1 or mFPR1 overexpressing 293T cells were incubated with the compound for 10 min at room temperature. The cytoplasmic calcium levels were then measured by FACS Aria III at 37° C. prior to and after the stimulation of fMLP. We defined the immunofluorescence intensity of indo-1 AM before adding fMLP as the basal value, and the intensity at the peak immunofluorescence reduction after adding fMLP as minimum value for each sample. The change of intracellular calcium was calculated as follow: (basal value−minimum value)/basal value×100%. The IC50 of each compound in inhibiting fMLP-FPR1 mediated intracellular calcium concentration in 293T cells were automatically calculated with Prism 8.0.2 software (GraphPad) after inputting a series of change of intracellular calcium at multiple concentration gradients (from 0 nM to 100 μM).

`CO[C@H]1CC[C@@H](N2C(=O)c3n[nH]c(-c4cc(C)ccc4O)c3C2c2ccc(C(F)(F)F)cc2)CC1` (mixture of isomers) [Compound 7, rac-3-(2-hydroxy-5-methylphenyl)-5-((1S,4S)-4-methoxycyclohexyl)-4-(4-(trifluoromethyl)phenyl)-4,5-dihydropyrrolo[3,4-c]pyrazol-6(2H)-one] and `COC1CCC(N2C(=O)c3n[nH]c(-c4cc(C)ccc4O)c3C2c2ccc(C(F)(F)F)cc2)CC1` (racemic) [Compound 8, Rac-3-(2-hydroxy-5-methylphenyl)-5-((1r,4r)-4-methoxycyclohexyl)-4-(4-(trifluoromethyl)phenyl)-4,5-dihydropyrrolo[3,4-c]pyrazol-6(2H)-one] fall in the same range of IC50: 1000 to 10000 nM for the first, 1000 to 10000 nM for the second.

First: Cc1ccc(O)c(-c2[nH]nc3c2C(c2ccc(C(F)(F)F)cc2)N(C2CCNCC2)C3=O)c1 (racemic) [Compound 4, Rac-3-(2-hydroxy-5-methylphenyl)-5-(piperidin-4-yl)-4-(4-(trifluoromethyl)phenyl)-4,5-dihydropyrrolo[3,4-c]pyrazol-6(2H)-one]
Second: Cc1ccc(O)c(-c2[nH]nc3c2[C@H](c2ccc(C(F)(F)F)cc2)N(C2CCOCC2)C3=O)c1 (single isomer, unassigned) [Compound 2]
The IC50 of the first is higher: 1000 to 10000 nM for the first, 100 to 1000 nM for the second.

First: CC(=O)N1CCC(N2C(=O)c3n[nH]c(-c4cc(C)ccc4O)c3C2c2ccc(C(F)(F)F)cc2)CC1 (racemic) [Compound 5, Rac-5-(1-acetylpiperidin-4-yl)-3-(2-hydroxy-5-methylphenyl)-4-(4-(trifluoromethyl)phenyl)-4,5-dihydropyrrolo[3,4-c]pyrazol-6(2H)-one]
Second: Cc1ccc(O)c(-c2[nH]nc3c2[C@@H](c2ccc(C(F)(F)F)cc2)N(C2CCOCC2)C3=O)c1 (single isomer, unassigned) [Compound 3]
The IC50 of the first is lower: 100 to 1000 nM for the first, 1000 to 10000 nM for the second. The first is the more potent here.

First: O=C1c2n[nH]c(-c3cc(Cl)ccc3O)c2C(c2ccc(C(F)(F)F)cc2)N1C1CCOCC1 (racemic) [Compound 9, Rac-3-(5-chloro-2-hydroxyphenyl)-5-(tetrahydro-2H-pyran-4-yl)-4-(4-(trifluoromethyl)phenyl)-4,5-dihydropyrrolo[3,4-c]pyrazol-6(2H)-one]
Second: O=C1c2n[nH]c(-c3cc(F)ccc3O)c2C(c2ccc(C(F)(F)F)cc2)N1C1CCOCC1 (racemic) [Compound 13, rac-3-(5-fluoro-2-hydroxyphenyl)-5-(tetrahydro-2H-pyran-4-yl)-4-(4-(trifluoromethyl)phenyl)-4,5-dihydropyrrolo[3,4-c]pyrazol-6(2H)-one]
The IC50 of the first is lower: 100 to 1000 nM for the first, 1000 to 10000 nM for the second.

`O=C1c2n[nH]c(-c3cc(F)ccc3O)c2C(c2ccc(Cl)cc2)N1C1CCOCC1` (racemic) [Compound 10, Rac-4-(4-chlorophenyl)-3-(5-fluoro-2-hydroxyphenyl)-5-(tetrahydro-2H-pyran-4-yl)-4,5-dihydropyrrolo[3,4-c]pyrazol-6(2H)-one] and `O=C1c2n[nH]c(-c3cc(F)ccc3O)c2[C@H](c2ccc(Cl)cc2)N1C1CCOCC1` (single isomer, unassigned) [Compound 11] fall in the same range of IC50: 1000 to 10000 nM for the first, 1000 to 10000 nM for the second.

`O=C1c2n[nH]c(-c3ccccn3)c2C(c2ccc(Cl)cc2)N1C1CCOCC1` (racemic) [Compound 14, Rac-4-(4-chlorophenyl)-3-(pyridin-2-yl)-5-(tetrahydro-2H-pyran-4-yl)-4,5-dihydropyrrolo[3,4-c]pyrazol-6(2H)-one] and `O=C1c2n[nH]c(-c3cc(F)ccc3O)c2[C@@H](c2ccc(Cl)cc2)N1C1CCOCC1` (single isomer, unassigned) [Compound 12] fall in the same range of IC50: 1000 to 10000 nM for the first, 1000 to 10000 nM for the second.

Test system: ICH mice
Assay: MRI lesion, hematoma and perihematomal edema volume in intracerebral hemorrhage (ICH) mouse model
Format: in vivo
Conditions: at 3 days after ICH, brain MRI, vs vehicle
From the text: The intracerebral hemorrhage (ICH) model in mice was used to illustrate the protective benefits of the compounds of this disclosure, and FIG. 1 depicts the procedure in preparing this model. ICH was induced in C57 B/L6 male mice by the injection of an autologous blood or collagenase as previously described (Lauer et al., Circulation 124: 1654-1662 (2011); Rynkowski et al., Nat. Protoc. 3:122-128 (2008)). Mice were anesthetized using isoflurane inhalation and fixed on a stereotactic frame. A burr hole was drilled on the right side of the skull at 2.3 mm lateral to the midline and 0.5 mm anterior to the bregma. For the autologous blood model, 30 μl of non-heparinized blood was withdrawn from the angular vein. The first 5 μl blood was injected at a depth of 3 mm beneath the hole, and the rest 25 μl blood were injected at 3.7 mm beneath the hole with a rate of 1 μl/min. In the collagenase model, 0.038 U of the bacterial collagenase (in 0.5 μl saline) was infused to the striatum (0.5 mm anterior, 2.3 mm right lateral, and 3.5 mm deep relative to bregma) at a speed of 0.5 μl/min. Mice on the sham control were injected with an equal volume of saline. Throughout the procedure, the body temperature was maintained at 37° C. with a homeothermic blanket. After the surgery, mice were under observation with free access to food and water. […]
The total lesion volume was measured on the 7T small-animal MM scanner (Bruker, Corp., USA) as described (Li et al., 2017). The T2-weighted water imaging was recorded with following parameters (repetition time (TR)=4500 ms, echo time (TE)=65.5 ms, field of view (FOV)=28×28 mm^2, image matrix=256×256, at 0.5-mm slice thickness). […] The volumes were manually outlined and calculated by multiplying the sum of the volume by the distance between sections (0.5 mm) using MIPAV software. PHE volumes were calculated as total lesion volume minus hematoma volume. MRI data were analyzed by two investigators blinded to experimental groups.

For `O=C1c2n[nH]c(-c3ccccn3)c2C(c2ccc(Cl)cc2)N1C1CCOCC1` (racemic) [Comp14], the peri-hematomal edema was “significantly reduced”.

Same assay, conditions: brain MRI, vs vehicle

In the case of `O=C1c2n[nH]c(-c3ccccn3)c2C(c2ccc(Cl)cc2)N1C1CCOCC1` (racemic) [Comp14], the hematoma size is reported as “no difference”.

Source: patent US20240109897A1, “MODULATORS OF FPR1 AND METHODS OF USING THE SAME” (BEIJING TIANTAN HOSPITAL, priority 2021, published 2024)
